Patent US9738634B2, “Heterocyclic amide compound and herbicide” (SYNGENTA PARTICIPATIONS AG, priority 2013, dated 2017)

Legend:
Format in all cases: in vivo
beet [1] = experiment: Test Example 4: foliar treatment, effect on crop; f: beet; conditions: treatment dosage 315 g/ha
Summary of the method: (§1)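 Seeds are spot-sown into sterilized diluvial soil and covered with about 1.5 cm of soil. After 14 days' greenhouse growth at 25 to 30° C, plants are sprayed on stems and leaves with diluted emulsion at the stated g/ha rate, then scored at 3 weeks.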

Italian ryegrass [2] = experiment: Test Example 4: weedkilling efficacy by foliar treatment; I: Italian ryegrass; conditions: treatment dosage 315 g/ha
Summary of the method: as §1

black-grass [3] = experiment: Test Example 4: weedkilling efficacy by foliar treatment; H: black-grass; conditions: treatment dosage 315 g/ha
Summary of the method: as §1

wild oat [4] = experiment: Test Example 3: weedkilling efficacy through soil treatment; G: wild oat; conditions: treatment dosage 315 g/ha
Summary of the method: (§2)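 Crop and weed responses were judged three weeks after a uniform surface spray of the water-diluted emulsion at the given g/ha rate. Seeds sat beneath about 1.5 cm of sterilized diluvial soil, and boxes stood in a greenhouse at 25 to 30° C.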

fig-leafed goosefoot [5] = experiment: Test Example 3: weedkilling efficacy through soil treatment; M: fig-leafed goosefoot; conditions: treatment dosage 315 g/ha
Summary of the method: as §2

green foxtail [6] = experiment: Test Example 4: weedkilling efficacy by foliar treatment; E: green foxtail; conditions: treatment dosage 315 g/ha
Summary of the method: as §1

corn [7] = experiment: Test Example 4: foliar treatment, effect on crop; c: corn; conditions: treatment dosage 315 g/ha
Summary of the method: as §1

chickweed [8] = experiment: Test Example 3: weedkilling efficacy through soil treatment; N: chickweed; conditions: treatment dosage 315 g/ha
Summary of the method: as §2

wheat [9] = experiment: Test Example 4: foliar treatment, effect on crop; e: wheat; conditions: treatment dosage 315 g/ha
Summary of the method: as §1

redroot pigweed [10] = experiment: Test Example 3: weedkilling efficacy through soil treatment; L: redroot pigweed; conditions: treatment dosage 315 g/ha
Summary of the method: as §2

green foxtail [11] = experiment: Test Example 3: weedkilling efficacy through soil treatment; E: green foxtail; conditions: treatment dosage 315 g/ha
Summary of the method: as §2

directly sown rice [12] = experiment: Test Example 3: soil treatment, effect on crop; b: directly sown rice; conditions: treatment dosage 315 g/ha
Summary of the method: as §2

catchweed [13] = experiment: Test Example 3: weedkilling efficacy through soil treatment; O: catchweed; conditions: treatment dosage 315 g/ha
Summary of the method: as §2

birds-eye speedwell [14] = experiment: Test Example 3: weedkilling efficacy through soil treatment; p: birds-eye speedwell; conditions: treatment dosage 315 g/ha
Summary of the method: as §2

Indian mallow [15] = experiment: Test Example 3: weedkilling efficacy through soil treatment; K: Indian mallow; conditions: treatment dosage 315 g/ha
Summary of the method: as §2

Italian ryegrass [16] = experiment: Test Example 3: weedkilling efficacy through soil treatment; I: Italian ryegrass; conditions: treatment dosage 315 g/ha
Summary of the method: as §2

catchweed [17] = experiment: Test Example 4: weedkilling efficacy by foliar treatment; O: catchweed; conditions: treatment dosage 315 g/ha
Summary of the method: as §1

fig-leafed goosefoot [18] = experiment: Test Example 4: weedkilling efficacy by foliar treatment; M: fig-leafed goosefoot; conditions: treatment dosage 315 g/ha
Summary of the method: as §1

crabgrass [19] = experiment: Test Example 4: weedkilling efficacy by foliar treatment; D: crabgrass; conditions: treatment dosage 315 g/ha
Summary of the method: as §1

wild oat [20] = experiment: Test Example 4: weedkilling efficacy by foliar treatment; G: wild oat; conditions: treatment dosage 315 g/ha
Summary of the method: as §1

beet [21] = experiment: Test Example 3: soil treatment, effect on crop; f: beet; conditions: treatment dosage 315 g/ha
Summary of the method: as §2

chickweed [22] = experiment: Test Example 4: weedkilling efficacy by foliar treatment; N: chickweed; conditions: treatment dosage 315 g/ha
Summary of the method: as §1

corn [23] = experiment: Test Example 3: soil treatment, effect on crop; c: corn; conditions: treatment dosage 315 g/ha
Summary of the method: as §2

birds-eye speedwell [24] = experiment: Test Example 4: weedkilling efficacy by foliar treatment; p: birds-eye speedwell; conditions: treatment dosage 315 g/ha
Summary of the method: as §1

soybean [25] = experiment: Test Example 3: soil treatment, effect on crop; d: soybean; conditions: treatment dosage 315 g/ha
Summary of the method: as §2

wheat [26] = experiment: Test Example 3: soil treatment, effect on crop; e: wheat; conditions: treatment dosage 315 g/ha
Summary of the method: as §2

black-grass [27] = experiment: Test Example 3: weedkilling efficacy through soil treatment; H: black-grass; conditions: treatment dosage 315 g/ha
Summary of the method: as §2

crabgrass [28] = experiment: Test Example 3: weedkilling efficacy through soil treatment; D: crabgrass; conditions: treatment dosage 315 g/ha
Summary of the method: as §2

soybean [29] = experiment: Test Example 4: foliar treatment, effect on crop; d: soybean; conditions: treatment dosage 315 g/ha
Summary of the method: as §1

redroot pigweed [30] = experiment: Test Example 4: weedkilling efficacy by foliar treatment; L: redroot pigweed; conditions: treatment dosage 315 g/ha
Summary of the method: as §1

Indian mallow [31] = experiment: Test Example 4: weedkilling efficacy by foliar treatment; K: Indian mallow; conditions: treatment dosage 315 g/ha
Summary of the method: as §1

directly sown rice [32] = experiment: Test Example 4: foliar treatment, effect on crop; b: directly sown rice; conditions: treatment dosage 315 g/ha
Summary of the method: as §1

bulrush [33] = experiment: Test Example 1: weedkilling efficacy, preemergent weed treatment in the submerged state; B: bulrush; conditions: treatment dosage 252 g/ha
Summary of the method: (§3)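 Alluvial soil in Wagner pots flooded to 4 cm; barnyard grass, bulrush and oval-leafed pondweed seeds sown, then 2.5-leaf rice seedlings transplanted. Same day, emulsified compound diluted in water to set g/ha dosages and applied to water surface; greenhouse 25–30 °C, effect scored by criteria after 3 weeks.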

oval-leafed pondweed [34] = experiment: Test Example 1: weedkilling efficacy, preemergent weed treatment in the submerged state; C: oval-leafed pondweed; conditions: treatment dosage 252 g/ha
Summary of the method: as §3

bulrush [35] = experiment: Test Example 2: weedkilling efficacy, growth period weed treatment in the submerged state; B: bulrush; conditions: treatment dosage 252 g/ha
Summary of the method: (§4)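 First, alluvial soil in pots is flooded to 4 cm and mixed seed is sown. Next, plants grow in a greenhouse at 25 to 30° C until the 1-2 leaf stage. Then diluted emulsion is applied onto the water surface at the given g/ha rate, and injury is assessed after 3 weeks.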

barnyard grass [36] = experiment: Test Example 2: weedkilling efficacy, growth period weed treatment in the submerged state; A: barnyard grass; conditions: treatment dosage 252 g/ha
Summary of the method: as §4

oval-leafed pondweed [37] = experiment: Test Example 2: weedkilling efficacy, growth period weed treatment in the submerged state; C: oval-leafed pondweed; conditions: treatment dosage 252 g/ha
Summary of the method: as §4

barnyard grass [38] = experiment: Test Example 1: weedkilling efficacy, preemergent weed treatment in the submerged state; A: barnyard grass; conditions: treatment dosage 252 g/ha
Summary of the method: as §3

transplanted rice = experiment: Test Example 1: preemergent weed treatment in the submerged state, effect on crop; a: transplanted rice; conditions: treatment dosage 252 g/ha
Summary of the method: as §3

| Compound | f (beet) effect on crop grade (beet [1]) | I (Italian ryegrass) weedkilling efficacy grade (Italian ryegrass [2]) | H (black-grass) weedkilling efficacy grade (black-grass [3]) | G (wild oat) weedkilling efficacy grade (wild oat [4]) | M (fig-leafed goosefoot) weedkilling efficacy grade (fig-leafed goosefoot [5]) | E (green foxtail) weedkilling efficacy grade (green foxtail [6]) | c (corn) effect on crop grade (corn [7]) | N (chickweed) weedkilling efficacy grade (chickweed [8]) | e (wheat) effect on crop grade (wheat [9]) | L (redroot pigweed) weedkilling efficacy grade (redroot pigweed [10]) | E (green foxtail) weedkilling efficacy grade (green foxtail [11]) | b (directly sown rice) effect on crop grade (directly sown rice [12]) | O (catchweed) weedkilling efficacy grade (catchweed [13]) | K (Indian mallow) weedkilling efficacy grade (Indian mallow [15]) | I (Italian ryegrass) weedkilling efficacy grade (Italian ryegrass [16]) | O (catchweed) weedkilling efficacy grade (catchweed [17]) | M (fig-leafed goosefoot) weedkilling efficacy grade (fig-leafed goosefoot [18]) | D (crabgrass) weedkilling efficacy grade (crabgrass [19]) | G (wild oat) weedkilling efficacy grade (wild oat [20]) | f (beet) effect on crop grade (beet [21]) | further results |
| --- | --- | --- | --- | --- | --- | --- | --- | --- | --- | --- | --- | --- | --- | --- | --- | --- | --- | --- | --- | --- | --- |
| CC1=C(c2cccnc2F)C(=O)N(C(C)(C)C(=O)Nc2cc(C(F)(F)F)ccn2)CO1 [B-2-17, 2-[5-(2-fluoropyridin-3-yl)-6-methyl-4-oxo-2H-1,3-oxazin-3(4H)-yl]-2-methyl-N-[4-(trifluoromethyl)pyridin-2-yl] propionamide] | 2 (weed kill ratio 20% or more, less than 40%) | 5 (weed kill ratio 90% or more, (practically complete withering)) | 4 (weed kill ratio 70% or more, less than 90%) | 5 (weed kill ratio 90% or more, (practically complete withering)) | 3 (weed kill ratio 40% or more, less than 70%) | 5 (weed kill ratio 90% or more, (practically complete withering)) | 3 (weed kill ratio 40% or more, less than 70%) | 3 (weed kill ratio 40% or more, less than 70%) | 0 (weed kill ratio 5% or less (practically no effect)) | 2 (weed kill ratio 20% or more, less than 40%) | 5 (weed kill ratio 90% or more, (practically complete withering)) | 4 (weed kill ratio 70% or more, less than 90%) | 1 (weed kill ratio 5% or more, less than 20%) | 2 (weed kill ratio 20% or more, less than 40%) | 5 (weed kill ratio 90% or more, (practically complete withering)) | 0 (weed kill ratio 5% or less (practically no effect)) | 2 (weed kill ratio 20% or more, less than 40%) | 5 (weed kill ratio 90% or more, (practically complete withering)) | 4 (weed kill ratio 70% or more, less than 90%) | 0 (weed kill ratio 5% or less (practically no effect)) | P (birds-eye speedwell) weedkilling efficacy grade (birds-eye speedwell [14]): 5 (weed kill ratio 90% or more, (practically complete withering)); N (chickweed) weedkilling efficacy grade (chickweed [22]): 2 (weed kill ratio 20% or more, less than 40%); c (corn) effect on crop grade (corn [23]): 2 (weed kill ratio 20% or more, less than 40%); P (birds-eye speedwell) weedkilling efficacy grade (birds-eye speedwell [24]): 2 (weed kill ratio 20% or more, less than 40%); d (soybean) effect on crop grade (soybean [25]): 2 (weed kill ratio 20% or more, less than 40%); e (wheat) effect on crop grade (wheat [26]): 1 (weed kill ratio 5% or more, less than 20%); H (black-grass) weedkilling efficacy grade (black-grass [27]): 5 (weed kill ratio 90% or more, (practically complete withering)); D (crabgrass) weedkilling efficacy grade (crabgrass [28]): 5 (weed kill ratio 90% or more, (practically complete withering)); d (soybean) effect on crop grade (soybean [29]): 0 (weed kill ratio 5% or less (practically no effect)); L (redroot pigweed) weedkilling efficacy grade (redroot pigweed [30]): 3 (weed kill ratio 40% or more, less than 70%); K (Indian mallow) weedkilling efficacy grade (Indian mallow [31]): 1 (weed kill ratio 5% or more, less than 20%); b (directly sown rice) effect on crop grade (directly sown rice [32]): 5 (weed kill ratio 90% or more, (practically complete withering)) |
| CC1=C(c2ccccc2)C(=O)N(C(C)(C)C(=O)Nc2cc(C(F)(F)F)cc(Cl)n2)CO1 [B-2-37] | 4 (weed kill ratio 70% or more, less than 90%) | 4 (weed kill ratio 70% or more, less than 90%) | 4 (weed kill ratio 70% or more, less than 90%) | 5 (weed kill ratio 90% or more, (practically complete withering)) | 4 (weed kill ratio 70% or more, less than 90%) | 5 (weed kill ratio 90% or more, (practically complete withering)) | 4 (weed kill ratio 70% or more, less than 90%) | 4 (weed kill ratio 70% or more, less than 90%) | 1 (weed kill ratio 5% or more, less than 20%) | 5 (weed kill ratio 90% or more, (practically complete withering)) | 5 (weed kill ratio 90% or more, (practically complete withering)) | 3 (weed kill ratio 40% or more, less than 70%) | 4 (weed kill ratio 70% or more, less than 90%) | 4 (weed kill ratio 70% or more, less than 90%) | 5 (weed kill ratio 90% or more, (practically complete withering)) | 3 (weed kill ratio 40% or more, less than 70%) | 3 (weed kill ratio 40% or more, less than 70%) | 5 (weed kill ratio 90% or more, (practically complete withering)) | 3 (weed kill ratio 40% or more, less than 70%) | 4 (weed kill ratio 70% or more, less than 90%) | B (bulrush) weedkilling efficacy grade (bulrush [33]): 5 (weed kill ratio 90% or more, (practically complete withering)); C (oval-leafed pondweed) weedkilling efficacy grade (oval-leafed pondweed [34]): 5 (weed kill ratio 90% or more, (practically complete withering)); B (bulrush) weedkilling efficacy grade (bulrush [35]): 5 (weed kill ratio 90% or more, (practically complete withering)); A (barnyard grass) weedkilling efficacy grade (barnyard grass [36]): 5 (weed kill ratio 90% or more, (practically complete withering)); C (oval-leafed pondweed) weedkilling efficacy grade (oval-leafed pondweed [37]): 5 (weed kill ratio 90% or more, (practically complete withering)); A (barnyard grass) weedkilling efficacy grade (barnyard grass [38]): 5 (weed kill ratio 90% or more, (practically complete withering)); a (transplanted rice) effect on crop grade (transplanted rice): 2 (weed kill ratio 20% or more, less than 40%); N (chickweed) weedkilling efficacy grade (chickweed [22]): 4 (weed kill ratio 70% or more, less than 90%); c (corn) effect on crop grade (corn [23]): 1 (weed kill ratio 5% or more, less than 20%); P (birds-eye speedwell) weedkilling efficacy grade (birds-eye speedwell [24]): 4 (weed kill ratio 70% or more, less than 90%); d (soybean) effect on crop grade (soybean [25]): 0 (weed kill ratio 5% or less (practically no effect)); e (wheat) effect on crop grade (wheat [26]): 0 (weed kill ratio 5% or less (practically no effect)); H (black-grass) weedkilling efficacy grade (black-grass [27]): 5 (weed kill ratio 90% or more, (practically complete withering)); D (crabgrass) weedkilling efficacy grade (crabgrass [28]): 5 (weed kill ratio 90% or more, (practically complete withering)); d (soybean) effect on crop grade (soybean [29]): 3 (weed kill ratio 40% or more, less than 70%); L (redroot pigweed) weedkilling efficacy grade (redroot pigweed [30]): 4 (weed kill ratio 70% or more, less than 90%); K (Indian mallow) weedkilling efficacy grade (Indian mallow [31]): 4 (weed kill ratio 70% or more, less than 90%); b (directly sown rice) effect on crop grade (directly sown rice [32]): 4 (weed kill ratio 70% or more, less than 90%) |
